One data set concerns A549. Briefly: Antitumor activity against human A549 cells incubated for 48 hrs. Type of data set: functional.
The next data set has as its system HCT-116. Briefly: Antitumor activity against human HCT-116 cells incubated for 48 hrs. Type of data set: functional.
The next data set concerns Hs-578T. Briefly: Antitumor activity against human Hs-578T cells incubated for 48 hrs. Type of data set: functional.
Data set [1] has as its system MDA-MB-231. Put plainly: Antitumor activity against human MDA-MB-231 cells incubated for 48 hrs by Celltiter Blue reagent based 2D microtiter assay. The class given is functional.
Data set [2] deals with MDA-MB-231. Put plainly: Antitumor activity against human MDA-MB-231 cells incubated for 48 hrs in presence of 1.5% BSA by Celltiter Blue reagent based 2D microtiter assay. The class given is functional.
Data set [3] relates to MDA-MB-231. Put plainly: Antitumor activity against human MDA-MB-231 cells incubated for 48 hrs by Celltiter Blue reagent based 3D microtiter assay. Type of data set: functional.
The test system of data set [4] is MDA-MB-231. Put plainly: Antitumor activity against human MDA-MB-231 cells incubated for 48 hrs in presence of 1.5% BSA by Celltiter Blue reagent based 3D microtiter assay. Type of data set: functional.
A short description of data set [5]: Intrinsic clearance in human hepatocytes measured per million cells incubated for 120 mins by LC-MS/MS analysis. Type of data set: ADME, cell-based, Hepatocyte. The note with it: read-out: CLH.
The next data set has as its system BMDM. Briefly: Growth inhibition of mouse BMDMs. The class given is functional, cell-based.
In a further data set the target is Cannabinoid receptor 2 (Homo sapiens, UniProt P34972). Briefly: Inhibition of CB2 (unknown origin). The class given is single protein.
Cannabinoid receptor 2, sequence (P34972 whole entry): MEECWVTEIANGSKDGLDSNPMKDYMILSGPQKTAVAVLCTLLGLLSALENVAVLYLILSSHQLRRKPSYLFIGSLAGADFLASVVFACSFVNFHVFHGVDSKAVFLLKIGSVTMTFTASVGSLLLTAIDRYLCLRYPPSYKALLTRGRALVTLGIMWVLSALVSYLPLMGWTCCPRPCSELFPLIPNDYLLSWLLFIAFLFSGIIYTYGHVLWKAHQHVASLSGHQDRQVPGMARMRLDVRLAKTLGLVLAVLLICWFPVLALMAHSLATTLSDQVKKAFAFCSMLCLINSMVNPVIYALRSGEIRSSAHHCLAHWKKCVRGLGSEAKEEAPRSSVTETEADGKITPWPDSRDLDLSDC
Data set [6] in a line: Metabolic stability in mouse liver microsomes assessed as half life at 100 uM preincubated for 5 mins followed by NADPH addition and measured upto 60 mins by LC-MS/MS analysis. Type of data set: ADME, Microsome. Particulars: time < 65 min.
Data set [7] is described as follows: Metabolic stability in human liver microsomes assessed as half life at 100 uM preincubated for 5 mins followed by NADPH addition and measured upto 60 mins by LC-MS/MS analysis. Type of data set: ADME, Microsome. Particulars: time < 65 min.
The nature of data set [8]: Metabolic stability in mouse liver microsomes assessed as half life at 100 uM measured upto 60 mins by LC-MS/MS analysis. The class given is ADME, Microsome. The note with it: 1 h.
Data set [9] can be described thus: Metabolic stability in human liver microsomes assessed as half life at 100 uM measured upto 60 mins by LC-MS/MS analysis. The class given is ADME, Microsome. The note with it: 1 h.
Another data set concerns the target T1, CYP1A2 (Homo sapiens, UniProt P05177).
T1 sequence (P05177 whole entry): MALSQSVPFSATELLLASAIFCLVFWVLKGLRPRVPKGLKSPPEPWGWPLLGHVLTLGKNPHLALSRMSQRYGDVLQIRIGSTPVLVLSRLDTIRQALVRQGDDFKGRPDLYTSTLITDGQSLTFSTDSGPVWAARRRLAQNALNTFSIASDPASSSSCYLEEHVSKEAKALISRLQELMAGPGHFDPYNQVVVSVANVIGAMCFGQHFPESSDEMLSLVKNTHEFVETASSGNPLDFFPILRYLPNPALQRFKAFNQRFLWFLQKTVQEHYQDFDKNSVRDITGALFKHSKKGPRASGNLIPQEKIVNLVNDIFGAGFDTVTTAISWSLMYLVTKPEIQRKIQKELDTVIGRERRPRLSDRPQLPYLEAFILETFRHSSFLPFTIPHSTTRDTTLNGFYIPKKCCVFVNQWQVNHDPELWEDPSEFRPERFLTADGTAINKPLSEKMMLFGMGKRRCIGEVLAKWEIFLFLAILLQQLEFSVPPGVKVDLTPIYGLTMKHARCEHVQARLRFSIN
Briefly: Drug metabolism in human liver microsomes assessed as CYP1A2-mediated metabolism by measuring increase in half life in presence of furafylline (reference value: 10.8 mins). Type of data set: ADME, Microsome. The note with it: with furafylline.

In another data set the target is CYP2C9 (Homo sapiens, UniProt P11712). Put plainly: Drug metabolism in human liver microsomes assessed as CYP2C9-mediated metabolism by measuring increase in half life in presence of sulfaphenazole (reference value: 10.8 mins). Type of data set: ADME, Microsome. Particulars: with sulfaphenazole.
CYP2C9, sequence (P11712 whole entry): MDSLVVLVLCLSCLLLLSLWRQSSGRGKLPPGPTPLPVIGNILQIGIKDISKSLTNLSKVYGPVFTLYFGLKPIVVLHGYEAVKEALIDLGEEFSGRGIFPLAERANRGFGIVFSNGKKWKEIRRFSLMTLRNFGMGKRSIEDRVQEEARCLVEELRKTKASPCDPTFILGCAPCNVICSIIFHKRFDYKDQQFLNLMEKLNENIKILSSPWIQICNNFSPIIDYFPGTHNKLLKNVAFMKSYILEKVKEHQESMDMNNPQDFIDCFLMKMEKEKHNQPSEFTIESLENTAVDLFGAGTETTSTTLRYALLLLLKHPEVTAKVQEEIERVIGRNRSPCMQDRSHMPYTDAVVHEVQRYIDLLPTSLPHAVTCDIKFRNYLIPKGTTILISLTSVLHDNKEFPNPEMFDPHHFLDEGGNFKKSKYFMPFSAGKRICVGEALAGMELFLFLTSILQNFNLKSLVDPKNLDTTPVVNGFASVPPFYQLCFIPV
The next data set concerns the target CYP2C19 (Homo sapiens, UniProt P33261). Put plainly: Drug metabolism in human liver microsomes assessed as CYP2C19-mediated metabolism by measuring increase in half life in presence of (+)-N-3-benzylnirvanol (reference value: 10.8 mins). The class given is ADME, Microsome. The note with it: with (+)-N-3-benzylnirvanol.
For a further data set, the target named is CYP2D6 (Homo sapiens, UniProt P10635). Briefly: Drug metabolism in human liver microsomes assessed as CYP2D6-mediated metabolism by measuring increase in half life in presence of quinidine (reference value: 10.8 mins). The class given is ADME, Microsome. Particulars: with quinidine.
CYP2D6, sequence (P10635 whole entry): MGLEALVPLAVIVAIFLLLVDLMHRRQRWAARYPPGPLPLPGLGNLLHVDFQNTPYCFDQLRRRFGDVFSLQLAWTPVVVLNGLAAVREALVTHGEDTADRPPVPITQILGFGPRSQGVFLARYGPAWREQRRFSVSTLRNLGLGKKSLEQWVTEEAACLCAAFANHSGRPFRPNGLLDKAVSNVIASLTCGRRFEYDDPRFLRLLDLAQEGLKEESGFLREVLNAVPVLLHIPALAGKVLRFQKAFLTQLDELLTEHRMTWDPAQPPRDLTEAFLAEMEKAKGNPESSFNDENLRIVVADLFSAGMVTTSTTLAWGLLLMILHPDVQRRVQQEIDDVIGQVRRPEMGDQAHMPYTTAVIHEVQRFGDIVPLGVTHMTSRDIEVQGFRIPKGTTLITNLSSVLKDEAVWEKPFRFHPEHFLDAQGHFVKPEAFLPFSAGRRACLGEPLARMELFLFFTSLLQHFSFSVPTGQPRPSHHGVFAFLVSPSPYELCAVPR
Another data set deals with CYP3A4 (Homo sapiens, UniProt P08684). Put plainly: Drug metabolism in human liver microsomes assessed as CYP3A4-mediated metabolism by measuring increase in half life in presence of ketoconazole (reference value: 10.8 mins). The class given is ADME, Microsome. Particulars: with ketoconazole.
CYP3A4, sequence (P08684 whole entry): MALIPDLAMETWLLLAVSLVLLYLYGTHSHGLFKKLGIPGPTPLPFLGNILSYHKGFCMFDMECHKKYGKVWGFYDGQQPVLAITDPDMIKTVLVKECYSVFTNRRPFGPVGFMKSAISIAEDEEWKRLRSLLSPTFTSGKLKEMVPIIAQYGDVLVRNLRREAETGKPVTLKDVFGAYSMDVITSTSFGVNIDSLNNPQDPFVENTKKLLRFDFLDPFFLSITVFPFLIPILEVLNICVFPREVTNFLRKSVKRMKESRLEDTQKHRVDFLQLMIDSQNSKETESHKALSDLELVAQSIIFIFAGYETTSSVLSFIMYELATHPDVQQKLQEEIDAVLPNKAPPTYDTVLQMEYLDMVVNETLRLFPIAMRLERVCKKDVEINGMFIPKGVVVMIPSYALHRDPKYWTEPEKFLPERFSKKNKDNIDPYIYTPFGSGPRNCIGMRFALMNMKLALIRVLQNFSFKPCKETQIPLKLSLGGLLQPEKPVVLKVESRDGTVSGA
A short description of data set [10]: Drug metabolism in mouse liver microsomes assessed as M1 metabolite formation at 10 uM after 30 mins in presence of NADPH by LC-MS/MS analysis. The class given is ADME, Microsome. The note with it: 0.5 h.
Data set [11] can be described thus: Drug metabolism in mouse liver microsomes assessed as M2 metabolite formation at 10 uM after 30 mins in presence of NADPH by LC-MS/MS analysis. Type of data set: ADME, Microsome. The note with it: 0.5 h.
The nature of data set [12]: Drug metabolism in mouse liver microsomes assessed as M3 metabolite formation at 10 uM after 30 mins in presence of NADPH by LC-MS/MS analysis. Type of data set: ADME, Microsome. Particulars: 0.5 h.
Data set [13] can be described thus: Protein binding in human plasma at 5 uM incubated for 5 hrs by LC-MS/MS analysis. Type of data set: ADME, cell-free. Particulars: read-out: PPB.
Data set [14] in a line: Protein binding in mouse plasma at 5 uM incubated for 5 hrs by LC-MS/MS analysis. Particulars: read-out: PPB. The class given is ADME, cell-free.

CYP2C19, sequence (P33261 whole entry): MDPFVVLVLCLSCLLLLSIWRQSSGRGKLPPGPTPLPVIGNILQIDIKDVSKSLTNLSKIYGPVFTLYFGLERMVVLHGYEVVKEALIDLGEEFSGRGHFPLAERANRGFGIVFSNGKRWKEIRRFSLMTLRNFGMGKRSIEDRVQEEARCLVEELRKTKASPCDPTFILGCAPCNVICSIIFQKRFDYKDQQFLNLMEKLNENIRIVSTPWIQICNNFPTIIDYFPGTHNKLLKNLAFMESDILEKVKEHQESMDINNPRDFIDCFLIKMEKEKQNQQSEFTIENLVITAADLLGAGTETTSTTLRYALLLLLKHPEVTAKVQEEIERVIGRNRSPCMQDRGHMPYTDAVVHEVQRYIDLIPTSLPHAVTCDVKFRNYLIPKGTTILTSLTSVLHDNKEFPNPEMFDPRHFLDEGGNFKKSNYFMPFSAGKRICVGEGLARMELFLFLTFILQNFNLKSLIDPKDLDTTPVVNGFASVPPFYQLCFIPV

With `[2H]C([2H])([2H])Oc1cc(C(=O)Nc2cc3c(cc2Oc2cc(C)cc(C)c2)C(=O)N[C@@H](CC(=O)N(C([2H])([2H])C([2H])([2H])[2H])C([2H])([2H])C([2H])([2H])[2H])C(=O)N3)c(Br)c(OC([2H])([2H])[2H])c1OC([2H])([2H])[2H]`, the GI50 in the data set on A549 is below 5 nM; in the data set on HCT-116 it was below 5 nM; with Hs-578T, below 5 nM; in the data set on MDA-MB-231 [1], below 1 nM; in the data set on MDA-MB-231 [2], below 1 nM; in the data set with MDA-MB-231 [3], 64.1 nM. In the data set on MDA-MB-231 [4], the GI50 was determined as 14 nM.

As for `[2H]C([2H])([2H])Oc1cc(C(=O)Nc2cc3c(cc2Oc2cc(C)cc(C)c2)C(=O)N[C@@H](CC(=O)N(OC([2H])([2H])[2H])C([2H])([2H])[2H])C(=O)N3)c(Br)c(OC([2H])([2H])[2H])c1OC([2H])([2H])[2H]`, the GI50 with A549 is below 5 nM; with HCT-116, below 5 nM; in the data set on Hs-578T, below 5 nM; in the data set with MDA-MB-231 [1] it was below 1 nM; with MDA-MB-231 [2], below 1 nM; with MDA-MB-231 [3] it was 2.12 nM. Also, in the data set on MDA-MB-231 [4], the GI50 is 9.47 nM. In data set [5], the hepatocyte CLint is 8.5 µL/min/1e6 cells. Moreover, the IC50 in the data set on BMDM was 1420 nM; on Cannabinoid receptor 2, 4.7 µM.

`CCN(CC)C(=O)C[C@H]1C(=O)Nc2cc(NC(=O)c3cc(OC)c(OC)c(OC)c3Br)c(Oc3cc(C)cc(C)c3)cc2C(=O)N1C`: the results for the half-life at 100 µM in [6] and in [7] were 13.8 min and 11 min, respectively. In addition, the Stability entry in [8] and in [9] was “Stable” in each case. The half-life at CYP1A2 amounted to 11.4 min; on CYP2C9 it was 16.6 min; at CYP2C19 it was 11.7 min; at CYP2D6 it was 11.6 min; at CYP3A4, 866 min. In addition, the Drug metabolism entry in data set [10], in [11] and in data set [12] was “Metabolite_Detected” throughout. The GI50 in the data set on A549 was below 5 nM; with HCT-116, below 5 nM; in the data set with Hs-578T it was 5.4 nM; in the data set on MDA-MB-231 [1], below 1 nM; in the data set with MDA-MB-231 [2], 3.39 nM; in the data set with MDA-MB-231 [3] it was 109 nM. Further, the GI50 in the data set with MDA-MB-231 [4] was found to be 53.2 nM. In addition, the fraction unbound at 5 h, 5 µM in data set [13] and in [14] was below 0.02 throughout.
